In patent US10421718B2, “EBNA1 inhibitors and their method of use” (priority 2013, dated 2019):

Target: T1, His-EBNA1 (DNA binding domain of EBNA1, amino acids 459-607) (Epstein-Barr virus, UniProt P03211)
T1 construct: made in house; host or cells: E. coli
Experiment: Inhibition of 5′-biotin-oPL4624 binding to His-EBNA1 using Alpha Screen technology
Conditions: Alpha Screen Activity (IC50, inhibition of 5′-biotin-oPL4624 binding to His-EBNA1), 15 nM His-EBNA1, 0.2 nM bt-oPL4624, 2 hr room temperature
Description: Inhibition of 5′-biotin-oPL4624 binding to His-EBNA1 using Alpha Screen technology: Assays were performed using the DNA binding domain of EBNA1 (amino acids 459-607), which was His-tagged (His-EBNA1) and the self-complementary biotinylated (bt) oligonucleotide with the sequence 5′-bt-[…]-ATGCTACCC-3′ (bt-oPL4624). The protein was expressed in E. coli and purified according to Barwell, et al. (Barwell J A, Bochkarev A, Pfuetzner R A, Tong H, Yang D S, Frappier L, Edwards A M. (1995) Overexpression, purification, and crystallization of the DNA binding and dimerization domains of the Epstein-Barr virus nuclear antigen 1. J Biol Chem. 270: 20556-9.). The bt-oPL4624 oligonucleotide was purchased from Integrated DNA Technologies, Inc (IDT). AlphaScreen donor, acceptor beads and white, opaque 384-well assay plates were purchased from PerkinElmer, Inc.
Assays contained 15 nM His-EBNA1, 0.2 nM bt-oPL4624, 5 μg/mL AlphaScreen streptavidin donor beads and nickel chelate acceptor beads, and a series of concentrations of test compound ranging from 3.2 nM to 100 μM in a total volume of 40 μL assay buffer (25 mM Tris, pH 7.2, 160 mM NaCl, 1 mM MgCl2). His-EBNA1 (30 nM) and bt-oPL4624 (0.4 nM) were preincubated with 10 μg/mL nickel chelate AlphaScreen acceptor bead, or 10 μg/mL streptavidin AlphaScreen donor bead, respectively, for 30 minutes at room temperature in assay buffer. Twenty microliters of His-EBNA1/acceptor bead mix and bt-oPL4624/donor bead mix were transferred to assay plates containing […] of 1:3 serial dilutions of test compounds previously prepared in DMSO at concentrations ranging from 0.32 μM to 10 mM. Nonspecific binding was determined with 5 μg/mL AlphaScreen acceptor bead in the absence of His-EBNA1. After 2 hr incubation at room temperature, the AlphaScreen signal was measured on the Envision plate reader (PerkinElmer, Inc.) at 680 nm excitation and 570 nm emission. Inhibition values at each concentration of test compound were determined by setting 100% equal to raw data values in the absence of EBNA1 and 0% equal to the raw data values in the presence of EBNA1. Nonlinear regression fits of the inhibition values to a one-site dose-response equation were performed using GraphPad Prism.

T1 sequence (P03211 459-607): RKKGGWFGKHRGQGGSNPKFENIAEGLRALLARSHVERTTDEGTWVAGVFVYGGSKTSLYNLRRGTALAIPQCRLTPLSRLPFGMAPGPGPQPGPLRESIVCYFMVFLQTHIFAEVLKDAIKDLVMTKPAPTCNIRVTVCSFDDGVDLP

O=C(O)c1cccc(C#Cc2ccc3[nH]cnc3c2)c1-n1cccc1 [Entry 41]
IC50: 1 to 10 µM

O=C(O)c1cccc(C#Cc2ccc3[nH]ccc3c2)c1-n1cccc1 [Entry 42, 3-[2-(1H-indol-5-yl)ethynyl]-2-(1H-pyrrol-1-yl)benzoic acid]
IC50: 1 to 10 µM

O=C(O)c1cccc(C#Cc2ccc3cc[nH]c3c2)c1-n1cccc1 [Entry 43, 3-[2-(1H-indol-6-yl)ethynyl]-2-(1H-pyrrol-1-yl)benzoic acid]
IC50: < 1 µM

Cc1ccc(C#Cc2cccc(C(=O)O)c2-n2cccc2)cc1 [Entry 44, 3-[2-(4-methylphenyl)ethynyl]-2-(1H-pyrrol-1-yl)benzoic acid]
IC50: < 1 µM

O=C(O)c1cccc(C#Cc2cc(F)cc(F)c2)c1-n1cccc1 [Entry 45, 3-[2-(3,5-difluorophenyl)ethynyl]-2-(1H-pyrrol-1-yl)benzoic acid]
IC50: 1 to 10 µM

O=C(O)c1cccc(C#Cc2cccc(OC(F)F)c2)c1-n1cccc1 [Entry 46, 3-{2-[3-(difluoromethoxy)phenyl]ethynyl}-2-(1H-pyrrol-1-yl)benzoic acid]
IC50: 1 to 10 µM

C#Cc1cccc(C(=O)O)c1-n1cccc1 [Entry 47, 3-ethynyl-2-(1H-pyrrol-1-yl)benzoic acid]
IC50: 10 to 100 µM

CC(C)(N)C#Cc1cccc(C(=O)O)c1-n1cccc1 [Entry 48, 3-(3-amino-3-methylbut-1-yn-1-yl)-2-(1H-pyrrol-1-yl)benzoic acid]
IC50: 100 to 1000 µM

CC(C)(C)C#Cc1cccc(C(=O)O)c1-n1cccc1 [Entry 49, 3-(3,3-dimethylbut-1-yn-1-yl)-2-(1H-pyrrol-1-yl)benzoic acid]
IC50: 1 to 10 µM

Cc1ccc(C)n1-c1c(C#Cc2ccccc2)cccc1C(=O)O [Entry 50, 2-(2,5-dimethyl-1H-pyrrol-1-yl)-3-(2-phenylethynyl)benzoic acid]
IC50: < 1 µM

O=C(O)c1cncc(C#Cc2ccc(F)cc2)c1-n1cccc1 [Entry 51]
IC50: 1 to 10 µM

O=C(O)c1cncc(C#Cc2ccccc2)c1-n1cccc1 [Entry 52, 5-(2-phenylethynyl)-4-(1H-pyrrol-1-yl)pyridine-3-carboxylic acid]
IC50: 10 to 100 µM

NC1(C#Cc2cccc(C(=O)O)c2-n2cccc2)CCCCC1 [Entry 53, 3-[2-(1-aminocyclohexyl)ethynyl]-2-(1H-pyrrol-1-yl)benzoic acid trifluoroacetic acid]
IC50: < 1 µM

O=C(O)c1cccc(C#CC2(O)CCCCC2)c1-n1cccc1 [Entry 54, 3-[2-(1-hydroxycyclohexyl)ethynyl]-2-(1H-pyrrol-1-yl)benzoic acid]
IC50: 1 to 10 µM

CCCCC(CC)C(O)C#Cc1cccc(C(=O)O)c1-n1cccc1 (centres unmarked) [Entry 55, 3-(4-ethyl-3-hydroxyoct-1-yn-1-yl)-2-(1H-pyrrol-1-yl)benzoic acid]
IC50: < 1 µM

O=C(O)c1cccc(C#Cc2cn3ccnc3cn2)c1-n1cccc1 [Entry 56, 3-(2-{imidazo[1,2-a]pyrazin-6-yl}ethynyl)-2-(1H-pyrrol-1-yl)benzoic acid]
IC50: < 1 µM

O=C(O)c1cccc(C#Cc2cccc(O)c2)c1-n1cccc1 [Entry 57, 3-[2-(3-hydroxyphenyl)ethynyl]-2-(1H-pyrrol-1-yl)benzoic acid]
IC50: < 1 µM

O=C(O)c1cc(Cl)cc(C#Cc2ccc(F)cc2)c1-n1cccc1 [Entry 58, 5-chloro-3-[2-(4-fluorophenyl)ethynyl]-2-(1H-pyrrol-1-yl)benzoic acid]
IC50: 10 to 100 µM

O=C(O)c1cc(Cl)cc(C#Cc2ccccc2)c1-n1cccc1 [Entry 59, 5-chloro-3-(2-phenylethynyl)-2-(1H-pyrrol-1-yl)benzoic acid]
IC50: 10 to 100 µM

O=C(O)c1cc(F)cc(C#Cc2ccc(F)cc2)c1-n1cccc1 [Entry 60, 5-fluoro-3-[2-(4-fluorophenyl)ethynyl]-2-(1H-pyrrol-1-yl)benzoic acid]
IC50: 100 to 1000 µM

O=C(O)c1cc(F)cc(C#Cc2ccccc2)c1-n1cccc1 [Entry 61, 5-fluoro-3-(2-phenylethynyl)-2-(1H-pyrrol-1-yl)benzoic acid]
IC50: 10 to 100 µM

O=C(O)c1cccc(C#CC2CC2)c1-n1cccc1 [Entry 62, 3-(2-cyclopropylethynyl)-2-(1H-pyrrol-1-yl)benzoic acid]
IC50: < 1 µM

CC(C)(O)C#Cc1cccc(C(=O)O)c1-n1cccc1 [Entry 63, 3-(3-hydroxy-3-methylbut-1-yn-1-yl)-2-(1H-pyrrol-1-yl)benzoic acid]
IC50: < 1 µM

CN(C)CC#Cc1cccc(C(=O)O)c1-n1cccc1 [Entry 64, 3-[3-(dimethylamino)prop-1-yn-1-yl]-2-(1H-pyrrol-1-yl)benzoic acid]
IC50: 100 to 1000 µM

O=C(O)c1cccc(C#CCCc2ccccc2)c1-n1cccc1 [Entry 65, 3-(4-phenylbut-1-yn-1-yl)-2-(1H-pyrrol-1-yl)benzoic acid]
IC50: < 1 µM

O=C(O)c1cccc(C#CCCCO)c1-n1cccc1 [Entry 66, 3-(5-hydroxypent-1-yn-1-yl)-2-(1H-pyrrol-1-yl)benzoic acid]
IC50: < 1 µM

COc1ccc(C#Cc2cccc(C(=O)O)c2-n2cccc2)cc1 [Entry 67, 3-[2-(4-methoxyphenyl)ethynyl]-2-(1H-pyrrol-1-yl)benzoic acid]
IC50: 1 to 10 µM

O=C(O)c1cccc(C#Cc2ccncc2)c1-n1cccc1 [Entry 68, 3-[2-(pyridin-4-yl)ethynyl]-2-(1H-pyrrol-1-yl)benzoic acid]
IC50: < 1 µM

O=C(O)c1cccc(C#Cc2cccnc2)c1-n1cccc1 [Entry 69, 3-[2-(pyridin-3-yl)ethynyl]-2-(1H-pyrrol-1-yl)benzoic acid]
IC50: 10 to 100 µM

COc1cccc(C#Cc2cccc(C(=O)O)c2-n2cccc2)c1 [Entry 70, 3-[2-(3-methoxyphenyl)ethynyl]-2-(1H-pyrrol-1-yl)benzoic acid]
IC50: 1 to 10 µM

O=C(O)c1cccc(C#Cc2ccc(F)cc2)c1-n1cccc1 [Entry 71, 3-[2-(4-fluorophenyl)ethynyl]-2-(1H-pyrrol-1-yl)benzoic acid]
IC50: 1 to 10 µM

O=C(O)c1cccc(C#Cc2ccccc2)c1-n1cccc1 [Entry 72, 3-(2-phenylethynyl)-2-(1H-pyrrol-1-yl)benzoic acid]
IC50: < 1 µM

CN(CC#Cc1cccc(C(=O)O)c1-n1cccc1)Cc1ccccc1 [Entry 73, 3-{3-[benzyl(methyl)amino]prop-1-yn-1-yl}-2-(1H-pyrrol-1-yl)benzoic acid]
IC50: < 1 µM

O=C(O)c1cccc(C#CCn2ccnc2)c1-n1cccc1 [Entry 74, 3-[3-(1H-imidazol-1-yl)prop-1-yn-1-yl]-2-(1H-pyrrol-1-yl)benzoic acid]
IC50: < 1 µM

O=C(O)c1cccc(C#Cc2cscn2)c1 [Entry 75, 3-[2-(1,3-thiazol-4-yl)ethynyl]benzoic acid]
IC50: 10 to 100 µM

O=C(O)c1cccc(C#Cc2c[nH]c3ncccc23)c1 [Entry 76, 3-(2-{1H-pyrrolo[2,3-b]pyridin-3-yl}ethynyl)benzoic acid]
IC50: 10 to 100 µM

O=C(O)c1cccc(C#Cc2ccc3[nH]ccc3c2)c1 [Entry 77, 3-[2-(1H-indol-5-yl)ethynyl]benzoic acid]
IC50: < 1 µM

Nc1c(C#Cc2c[nH]c3ncccc23)cccc1C(=O)O [Entry 78]
IC50: < 1 µM

Nc1c(C#Cc2cccc3[nH]ccc23)cccc1C(=O)O [Entry 79, 2-amino-3-[2-(1H-indol-4-yl)ethynyl]benzoic acid]
IC50: < 1 µM

Nc1c(C#Cc2ccc3cc[nH]c3c2)cccc1C(=O)O [Entry 80, 2-amino-3-[2-(1H-indol-6-yl)ethynyl]benzoic acid]
IC50: < 1 µM

Nc1c(C#Cc2ccc3[nH]ccc3c2)cccc1C(=O)O [Entry 81]
IC50: < 1 µM

Nc1c(C#Cc2cccc(CO)c2)cccc1C(=O)O [Entry 82, 2-amino-3-{2-[3-(hydroxymethyl)phenyl]ethynyl}benzoic acid]
IC50: 1 to 10 µM

Nc1c(C#Cc2cccc(O)c2)cccc1C(=O)O [Entry 83]
IC50: 1 to 10 µM

Nc1c(C#Cc2ccccc2)cccc1C(=O)O [Entry 84]
IC50: 10 to 100 µM

O=C(O)c1cccc(C#Cc2ccccc2)c1F [Entry 85, 2-fluoro-3-(2-phenylethynyl)benzoic acid]
IC50: 1 to 10 µM

O=C(O)c1cccc(C#Cc2c[nH]c3ncccc23)c1F [Entry 86, 2-fluoro-3-(2-{1H-pyrrolo[2,3-b]pyridin-3-yl}ethynyl)benzoic acid]
IC50: 10 to 100 µM

O=C(O)c1cccc(C#Cc2cnc3cnccn23)c1F [Entry 87, 2-fluoro-3-(2-{imidazo[1,2-a]pyrazin-3-yl}ethynyl)benzoic acid]
IC50: < 1 µM
